# Laboratory results as given in patent US8420655B2, “Benzimidazole inhibitors of leukotriene production” (Boehringer Ingelheim International GmbH, priority 2009, dated 2013).
# Tested on: apoE/LDL-R double knockout mice
# Assay: not given
# Details: oral dosing, high-fat diet from 2 months of age to 6 months; cited from earlier work
Compound,decrease in plaque coverage in the aorta [%],decrease in plaque coverage in the aortic root [%]
CC(C)c1ccc2c(c1)c(SC(C)(C)C)c(CC(C)(C)C(=O)O)n2Cc1ccc(Cl)cc1 [MK-886],56,43

# Tested on: apoE-deficient mice
# Assay: not given
# Details: cited from earlier work
row,Compound,effect on atherosclerosis
1,C[C@H](C#Cc1ccc(Cc2ccc(F)cc2)s1)N(O)C(N)=O [VIA-2291],attenuate atherosclerosis

# Target: T1, recombinant human FLAP protein (Homo sapiens, UniProt P20292)
# T1 construct: made in house; host or cells: Sf9 insect cells (membrane fraction, 100,000 x g pellet)
# T1 sequence (P20292 1-161): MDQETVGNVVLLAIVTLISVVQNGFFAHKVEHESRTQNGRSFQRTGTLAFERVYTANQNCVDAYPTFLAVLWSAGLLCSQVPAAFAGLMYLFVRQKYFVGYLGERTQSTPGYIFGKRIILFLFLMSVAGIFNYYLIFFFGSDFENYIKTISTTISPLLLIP
# Assay: FLAP binding assay, displacement of iodinated (125I) FLAP inhibitor, Scintillation Proximity Assay format
# Details: [125I]L-691,831 probe, membrane protein from sf9 cells; read-out: hFLAP binding IC50
# Description: Compounds are assessed for the ability to bind to FLAP in a binding assay that measures compound-specific displacement of an iodinated (^125I) FLAP inhibitor via a Scintillation Proximity Assay format (adapted from S. Charleson et al., Mol. Pharmacol., 1992, 41, 873-879).
# Cell pellets produced from sf9 insect cells expressing recombinant human FLAP protein are resuspended in buffer A [15 mM Tris-HCl (pH 7.5), 2 mM MgCl2, 0.3 mM EDTA, 1 mM PMSF]. The cells are lysed with a Dounce homogenizer and the material is centrifuged at 10,000×g for 10 minutes. The supernatant is then collected and centrifuged at 100,000×g for 60 minutes. To prepare membrane protein for an assay, an aliquot of the 100,000×g pellet is resuspended in 1 ml of buffer A, Dounce homogenized, and finally subjected to polytron mixing (30 seconds). Membrane protein (25 μl, 5 μg) is mixed with WGA SPA beads (Amersham) and stirred for 1 h. To an assay plate (Perkin Elmer FlexiPlate) is added 25 μl of test compound prepared in Binding buffer [100 mM Tris (pH 7.5), 140 mM NaCl, 5% glycerol, 2 mM EDTA, 0.5 mM TCEP, 0.05% Tween 20], 25 μl of [^125I]L-691,831 (an iodinated analog of MK-591, Charleson et al. Mol. Pharmacol., 41, 873-879, 1992) and finally 50 μl of the bead/protein mixture. (final concentrations: beads, 200 μg/well; protein, 5 μg/well; [^125I] probe, 0 08 nM/well (17 nCi/well). The plates are shaken for 2 h before reading on a Microbeta plate reader. Non-specific binding is determined by the addition of 10 μM cold L-691,831 compound.
row,IC50 [nM],Compound
1,5.5,"CC(C)(Oc1ccc(-c2nc3cc(-c4cnc(N)nc4)ccc3n2C(C)(C)C)c(-n2cncn2)c1)C(=O)O [2-{4-[5-(2-Amino-pyrimidin-5-yl)-1-tert-butyl-1H-benzoimidazol-2-yl]-3-[1,2,4]triazol-1-yl-phenoxy}-2-methyl-propionic acid]"
2,2.2,"COc1ccc(-n2cnc(C)n2)c(-c2nc3cc(-c4cnc(N)nc4)ccc3n2C(C)(C)C)c1 [5-{1-tert-Butyl-2-[5-methoxy-2-(3-methyl-1,2,4-triazol-1-yl)-phenyl]-1H-benzimidazol-5-yl}-pyrimidin-2-ylamine]"
3,24,"COc1ccc(-c2nc(C)no2)c(-c2nc3cc(-c4cnc(N)nc4)ccc3n2C(C)(C)C)c1 [5-{1-tert-Butyl-2-[5-methoxy-2-(3-methyl-1,2,4-oxadiazol-5-yl)-phenyl]-1H-benzimidazol-5-yl}-pyrimidin-2-ylamine]"
4,1.3,Cc1ccnn1-c1ccc(C#N)cc1-c1nc2cc(-c3cnc(N)nc3)ccc2n1C(C)(C)C [3-[5-(2-Amino-pyrimidin-5-yl)-1-tert-butyl-1H-benzoimidazol-2-yl]-4-(5-methyl-pyrazol-1-yl)-benzonitrile]
5,1.7,"COc1ccc(-n2cncn2)c(-c2nc3cc(-c4cnc(N)nc4)ccc3n2C(C)(C)C)c1 [5-[1-tert-Butyl-2-(5-methoxy-2-1,2,4-triazol-1-yl-phenyl)-1H-benzimidazol-5-yl]-pyrimidin-2-ylamine]"
6,12.4,"CC(C)COC(=O)c1ncn(-c2ccc(C#N)cc2-c2nc3cc(-c4cnc(N)nc4)ccc3n2C(C)(C)C)n1 [1-{2-[5-(2-Amino-pyrimidin-5-yl)-1-tert-butyl-1H-benzoimidazol-2-yl]-4-cyano-phenyl}-1H-[1,2,4]triazole-3-carboxylic acid isobutyl ester]"
7,4.5,"CC(C)(C)n1c(-c2cc(Br)ccc2-n2cncn2)nc2cc(-c3cnc(N)nc3)ccc21 [5-[2-(5-Bromo-2-1,2,4-triazol-1-yl-phenyl)-1-tert-butyl-1H-benzimidazol-5-yl]-pyrimidin-2-ylamine]"
8,1.7,COc1ccc(-c2csc(C)n2)c(-c2nc3cc(-c4cnc(N)nc4)ccc3n2C(C)(C)C)c1 [5-{1-tert-Butyl-2-[5-methoxy-2-(2-methyl-thiazol-4-yl)-phenyl]-1H-benzimidazol-5-yl}-pyrimidin-2-ylamine]
9,1.4,"Cc1ncn(-c2ccc(F)cc2-c2nc3cc(-c4cnc(N)nc4)ccc3n2C(C)(C)C)n1 [5-{1-tert-Butyl-2-[5-fluoro-2-(3-methyl-1,2,4-triazol-1-yl)-phenyl]-1H-benzimidazol-5-yl}-pyrimidin-2-ylamine]"
10,5.2,COc1ccc(-n2cccn2)c(-c2nc3cc(-c4cnc(N)nc4)ccc3n2C(C)(C)C)c1 [5-[1-tert-Butyl-2-(5-methoxy-2-pyrazol-1-yl-phenyl)-1H-benzimidazol-5-yl]-pyrimidin-2-ylamine]
11,1.2,"Cn1ncnc1-c1ccc(Cl)cc1-c1nc2cc(-c3cnc(N)nc3)ccc2n1C(C)(C)C [5-{1-tert-Butyl-2-[5-chloro-2-(2-methyl-2H-1,2,4-triazol-3-yl)-phenyl]-1H-benzimidazol-5-yl}-pyrimidin-2-ylamine]"
12,10.6,"CC(C)(C)n1c(-c2ccc(OC3CCOC3)cc2-n2cncn2)nc2cc(-c3cnc(N)nc3)ccc21 (stereo not shown) [5-{1-tert-Butyl-2-[4-(tetrahydro-furan-3-yloxy)-2-1,2,4-triazol-1-yl-phenyl]-1H-benzimidazol-5-yl}-pyrimidin-2-ylamine]"
13,10.6,"CC(C)(C)n1c(-c2cc(-c3csc(C(=O)O)c3)ccc2-n2cncn2)nc2cc(-c3cnc(N)nc3)ccc21 [4-{3-[5-(2-Amino-pyrimidin-5-yl)-1-tert-butyl-1H-benzoimidazol-2-yl]-4-[1,2,4]triazol-1-yl-phenyl}-thiophene-2-carboxylic acid]"
14,36.8,"CC(C)(C)n1c(-c2cc(S(C)(=O)=O)ccc2-n2cncn2)nc2cc(-c3cnc(N)nc3)ccc21 [5-[1-tert-Butyl-2-(5-methanesulfonyl-2-[1,2,4]triazol-1-yl-phenyl)-1H-benzoimidazol-5-yl]-pyrimidin-2-ylamine]"
15,1.6,"Cc1ncn(-c2ccccc2-c2nc3cc(-c4cnc(N)nc4)ccc3n2C(C)(C)C)n1 [5-{1-tert-Butyl-2-[2-(3-methyl-1,2,4-triazol-1-yl)-phenyl]-1H-benzimidazol-5-yl}-pyrimidin-2-ylamine]"
16,4,"CC(C)(COc1ccc(-c2nc3cc(-c4cnc(N)nc4)ccc3n2C(C)(C)C)c(-n2cncn2)c1)C(=O)O [3-{4-[5-(2-Amino-pyrimidin-5-yl)-1-tert-butyl-1H-benzoimidazol-2-yl]-3-[1,2,4]triazol-1-yl-phenoxy}-2,2-dimethyl-propionic acid]"
17,1.9,"Cc1noc(-c2ccc(Cl)cc2-c2nc3cc(-c4cnc(N)nc4)ccc3n2C(C)(C)C)n1 [5-{1-tert-Butyl-2-[5-chloro-2-(3-methyl-1,2,4-oxadiazol-5-yl)-phenyl]-1H-benzimidazol-5-yl}-pyrimidin-2-ylamine]"
18,4.2,"CC(C)(C)n1c(-c2ccccc2-c2ncn(CC#N)n2)nc2cc(-c3cnc(N)nc3)ccc21 [(3-{2-[5-(2-Amino-pyrimidin-5-yl)-1-tert-butyl-1H-benzoimidazol-2-yl]-phenyl}-[1,2,4]triazol-1-yl)-acetonitrile]"
19,4.6,"CC(C)(C)n1c(-c2cc(-c3nn[nH]n3)ccc2-n2cncn2)nc2cc(-c3cnc(N)nc3)ccc21 [5-{1-tert-Butyl-2-[5-(2H-tetrazol-5-yl)-2-[1,2,4]triazol-1-yl-phenyl]-1H-benzoimidazol-5-yl}-pyrimidin-2-ylamine]"
20,0.71,Cc1ccn(-c2ccc(Cl)cc2-c2nc3cc(-c4cnc(N)nc4)ccc3n2C(C)(C)C)n1 [5-{1-tert-Butyl-2-[5-chloro-2-(3-methyl-pyrazol-1-yl)-phenyl]-1H-benzimidazol-5-yl}-pyrimidin-2-ylamine]
21,28,"CCCCC/C(=C\C(=O)OC)c1ccc(-n2cncn2)c(-c2nc3cc(-c4cnc(N)nc4)ccc3n2C(C)(C)C)c1 [(E)-3-{3-[5-(2-Amino-pyrimidin-5-yl)-1-tert-butyl-1H-benzoimidazol-2-yl]-4-[1,2,4]triazol-1-yl-phenyl}-oct-2-enoic acid methyl ester]"
22,1.4,CC(C)(C)n1c(-c2cc(F)ccc2-n2cncn2)nc2cc(-c3cnc(N)nc3)ccc21
23,1.3,CC(C)(C)n1c(-c2cc(Cl)ccc2-n2cccn2)nc2cc(-c3cnc(N)nc3)ccc21 [5-[1-tert-Butyl-2-(5-chloro-2-pyrazol-1-yl-phenyl)-1H-benzimidazol-5-yl]-pyrimidin-2-ylamine]
24,2.7,"CCOC(=O)C(C)(C)COc1ccc(-c2nc3cc(-c4cnc(N)nc4)ccc3n2C(C)(C)C)c(-n2cncn2)c1 [3-{4-[5-(2-Amino-pyrimidin-5-yl)-1-tert-butyl-1H-benzoimidazol-2-yl]-3-[1,2,4]triazol-1-yl-phenoxy}-2,2-dimethyl-propionic acid ethyl ester]"

row,Compound,IC50 [nM]
1,"CC(C)NC(=O)Oc1ccc(-n2cncn2)c(-c2nc3cc(-c4cnc(N)nc4)ccc3n2C(C)(C)C)c1 [Isopropyl-carbamic acid 3-[5-(2-amino-pyrimidin-5-yl)-1-tert-butyl-1H-benzimidazol-2-yl]-4-1,2,4-triazol-1-yl-phenyl ester]",1.5

# Tested on: human glomerulonephritis
# Assay: not given
# Details: clinical trial; cited from earlier work
row,Compound,effect on proteinuria
1,CC(C)(C)Sc1c(CC(C)(C)C(=O)O)n(Cc2ccc(Cl)cc2)c2ccc(OCc3ccc4ccccc4n3)cc12 [MK-591],reduce proteinuria

# Tested on: biomarkers for myocardial infarction risk
# Assay: not given
# Details: clinical trials; cited from earlier work
row,Compound,effect on biomarkers for myocardial infarction risk
1,O=C(O)[C@@H](c1ccc(OCc2ccc3ccccc3n2)cc1)C1CCCC1 [DG-031],dose-dependent suppression of several biomarkers

# Tested on: ApoE−/−xCD4dnTβRII mice
# Assay: not given
# Details: via infusion, treated for four weeks; cited from earlier work
row,Compound,decrease in plaque area in the aortic root [%]
1,CC(C)c1ccc2c(c1)c(SC(C)(C)C)c(CC(C)(C)C(=O)O)n2Cc1ccc(Cl)cc1 [MK-886],~40
